The results in this text go back to patent US20210238698A1, “METHODS OF DIAGNOSING AND TREATING CANCER PATIENTS EXPRESSING HIGH LEVELS OF TGF-B RESPONSE SIGNATURE” (MEDPACTO, INC., priority 2018, published 2021).

For this assay, the system named is patients with advanced solid tumors. Kind of assay: Phase I trial of single administration of Vactosertib, tumor assessment (anti-tumor activity). In kind it is in vivo, human. An excerpt:
A ‘responder’ refers to a Patient whose best overall response on treatment was stable disease (SD) or greater, and a ‘non-responder’ refers to a patient whose best overall response on treatment was progression on disease (PD) or worse. The unit for all data of gene expression is TPM (Transcripts Per Kilobase Million). The CD8A gene is implicated in playing an important role in the immune response. The cytolytic score is used to assess anticancer immunity. […]
In particular, the F-TBRS and the cytolytic score in cancer of responders and non-responders at the Phase I trial of single administration of Vactosertib (the compound represented by Formula II; TEW-7197) were analyzed and the results were shown in FIG. 3.
In addition, the EMT/F-TBRS expression distribution from the TCGA database of bladder cancer was analyzed and the results are shown in FIG. 4. […]

As to `Cc1cccc(-c2[nH]c(CNc3ccccc3F)nc2-c2ccc3ncnn3c2)n1` [Vactosertib, N-((4-([1,2,4]triazolo[1,5-a]pyridin-6-yl)-5-(6-methylpyridin-2-yl)-1H-imidazol-2-yl)methyl)-2-fluoroaniline], the “patients who achieved SD (stable disease, responder)” value (Phase I, higher doses (≥140 mg, qd)) is reported as “seven”. Besides, the tumor shrinkage (one patient with bladder cancer at the Phase I trial, high EMT/F-TBRS expression) is recorded as −25%.
